Reference: ChEMBL document CHEMBL1165986, “Xestosaprols from the Indonesian marine sponge Xestospongia sp” (J Nat Prod, 2010)

Molecular target: Beta-secretase 1 (Homo sapiens, UniProt P56817)
Assay: Inhibition of BACE1 mediated cleavage of amyloid precursor protein by chemiluminescence assay

Sequence of Beta-secretase 1 (P56817 whole entry): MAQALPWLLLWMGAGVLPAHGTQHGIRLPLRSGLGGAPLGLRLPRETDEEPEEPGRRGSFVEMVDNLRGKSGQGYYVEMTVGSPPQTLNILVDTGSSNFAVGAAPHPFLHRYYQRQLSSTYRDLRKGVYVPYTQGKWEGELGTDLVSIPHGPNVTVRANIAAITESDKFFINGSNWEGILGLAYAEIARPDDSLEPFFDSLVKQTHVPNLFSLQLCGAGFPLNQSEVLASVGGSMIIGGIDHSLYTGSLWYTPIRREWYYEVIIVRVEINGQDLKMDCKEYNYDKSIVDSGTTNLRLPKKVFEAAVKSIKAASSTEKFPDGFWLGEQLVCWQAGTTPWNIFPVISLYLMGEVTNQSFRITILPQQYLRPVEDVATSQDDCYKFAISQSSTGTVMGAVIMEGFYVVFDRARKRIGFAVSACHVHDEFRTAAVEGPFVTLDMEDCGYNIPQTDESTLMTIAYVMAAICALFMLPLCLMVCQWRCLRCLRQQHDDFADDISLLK

SMILES	IC50 [µM]	inhibition
C[C@@]12CC[C@H](O)[C@@H]3COC(=C31)C(=O)c1cc3c(OCCO)cccc3cc12 [XESTOSAPROL F]	135	Dose-dependent effect
C[C@@]12CC[C@H](O)[C@@H]3COC(=C31)C(=O)c1cc3c(O)cccc3cc12 [XESTOSAPROL G]	155	Dose-dependent effect
C[C@@]12CC[C@@H](O)[C@@H]3COC(=C31)C(=O)c1cc3c(OCCO)cccc3cc12 [XESTOSAPROL H]	82	Dose-dependent effect
C[C@@]12CC[C@@H](O)[C@@H]3COC(=C31)C(=O)c1cc3ccccc3cc12 [XESTOSAPROL I]	163	Dose-dependent effect
COc1cccc2cc3c(cc12)[C@]1(C)CC[C@H](O)[C@@H]2COC(=C21)C3=O [XESTOSAPROL J]	90	Dose-dependent effect
C[C@@]12CC[C@H](O)[C@@H]3COC(=C31)C(=O)c1cc3cccc(O)c3cc12 [XESTOSAPROL K]	93	Dose-dependent effect
C[C@@]12CC[C@H](O)[C@@H]3COC(=C31)C(=O)c1cc3ccccc3cc12 [XESTOSAPROL L]	98	Dose-dependent effect
C[C@@]12CCCc3coc(c31)C(=O)c1cc3ccccc3cc12 [XESTOSAPROL M]	104	Dose-dependent effect
